The record followed here is paper PMC5085761 (International Journal of Molecular Sciences, 2016).

For data set [1], the target named is T1, OAT3 (Homo sapiens, UniProt Q8TCC7).
T1 construct: host or cells: HEK293
T1 sequence (Q8TCC7 1-542): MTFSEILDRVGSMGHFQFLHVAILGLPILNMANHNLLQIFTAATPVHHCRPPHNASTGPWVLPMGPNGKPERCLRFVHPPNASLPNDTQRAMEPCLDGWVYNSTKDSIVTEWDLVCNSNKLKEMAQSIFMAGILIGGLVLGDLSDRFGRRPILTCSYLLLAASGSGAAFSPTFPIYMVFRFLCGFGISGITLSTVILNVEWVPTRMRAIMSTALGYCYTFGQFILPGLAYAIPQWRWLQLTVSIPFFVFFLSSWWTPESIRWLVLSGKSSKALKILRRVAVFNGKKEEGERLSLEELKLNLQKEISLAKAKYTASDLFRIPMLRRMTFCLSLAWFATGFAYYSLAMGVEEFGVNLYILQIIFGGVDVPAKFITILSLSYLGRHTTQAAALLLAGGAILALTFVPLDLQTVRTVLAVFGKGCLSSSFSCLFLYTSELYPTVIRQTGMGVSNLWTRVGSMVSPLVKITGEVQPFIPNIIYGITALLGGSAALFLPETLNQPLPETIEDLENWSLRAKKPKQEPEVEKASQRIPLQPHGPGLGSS
Briefly: [14C]fluciclovine uptake by OAT3-expressing cells. The settings on record: OAT3 cells vs mock cells. Format: in vitro ADME.

The next data set concerns LLC-PK1 monolayer model. The data set is described as follows: Inhibition study of [14C]fluciclovine apical-to-basal transport, LLC-PK1 monolayer model. The text has this: Natural and synthetic amino acids were used as inhibitors: MeAIB (2-(methylamino)-isobutyric acid, for system A in the presence of Na^+); Thr (L-threonine, for system ASC in the presence of Na^+); and BCH (2-aminobicyclo[2,2,1]heptane-2-carboxylic acid, for system L in the absence of Na^+).

The next data set concerns the target T2, OAT1 (Homo sapiens, UniProt Q4U2R8).
T2 construct: host or cells: Flp-in-293
T2 sequence (Q4U2R8 1-563): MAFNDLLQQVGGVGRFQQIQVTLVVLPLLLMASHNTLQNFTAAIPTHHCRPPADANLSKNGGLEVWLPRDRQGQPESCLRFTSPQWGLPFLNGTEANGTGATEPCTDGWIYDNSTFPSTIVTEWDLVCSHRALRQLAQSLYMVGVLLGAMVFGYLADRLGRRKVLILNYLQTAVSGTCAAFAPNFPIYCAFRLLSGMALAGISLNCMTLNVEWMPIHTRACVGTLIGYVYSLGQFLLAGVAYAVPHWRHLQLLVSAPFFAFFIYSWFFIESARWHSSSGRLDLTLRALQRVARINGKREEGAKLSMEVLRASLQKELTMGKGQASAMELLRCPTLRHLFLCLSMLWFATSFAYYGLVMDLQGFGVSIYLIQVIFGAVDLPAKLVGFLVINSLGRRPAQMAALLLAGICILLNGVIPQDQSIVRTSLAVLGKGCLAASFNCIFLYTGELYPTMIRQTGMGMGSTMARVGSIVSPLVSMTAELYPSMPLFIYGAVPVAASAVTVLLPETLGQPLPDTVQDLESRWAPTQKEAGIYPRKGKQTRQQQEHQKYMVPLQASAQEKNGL
Briefly: [14C]fluciclovine uptake by OAT1-expressing cells. Format: in vitro ADME. The following applies: OAT1 cells vs mock cells. On the procedure: (§1) For the SLC transporter experiments, Mock Flp-in-293 cells (Flp/mock), OAT1-expressing Flp-in-293 cells (Flp/OAT1), mock HEK293 cells (HEK/mock), and OATP1B3-expressing HEK293 cells (HEK/OATP1B3) were obtained from Kanazawa University (Ishikawa, Japan). Briefly, Flp-in-293 and HEK293 cells were transfected with the appropriate plasmid DNA and selected using antibiotics (hygromycin or G-418). All cell lines were cultured in DMEM (Life Technologies Japan) supplemented with 10% (v/v) fetal bovine serum (American Type Culture Collection) and antibiotics (100 U/mL penicillin and 100 μg/mL streptomycin (Life Technologies Japan) for mock cells, 0.2 mg/mL hygromycin for Flp/OAT1 cells, and 1.2 mg/mL G-418 (Roche Diagnostics K.K., Tokyo, Japan) for HEK/OATP1B3 cells) at 37 °C under an atmosphere containing 5% CO2. […]
(§2) The experiments were performed as described previously, with minor modifications. […] The cells were lysed in 0.3 mL of 0.1N NaOH at room temperature, after which the radioactivity of each aliquot was measured as described above. The protein concentration of the cell lysate was determined with a VersaMax microplate reader (Molecular Devices Japan K.K., Osaka, Japan) or SpectraMax i3x (Molecular Devices Japan K.K.; only for OATP1B1) using a BCA Protein Assay Kit (Thermo Fisher Scientific, Kanagawa, Japan). Tracer uptake was expressed as pmol/mg protein. […]

For data set [2], the target named is T1, OAT3. The data set is described as follows: Inhibition of tracer uptake in OAT3-expressing cells. Format: in vitro ADME. How it is done:
as §1, §2

Take `N[14C]1(C(=O)O)CC(F)C1` (stereo not drawn) [[^14C]fluciclovine, trans-1-amino-3-fluoro[1-^14C]cyclobutanecarboxylic acid]: the drug transporter-mediated uptake entry on OAT3 [1] and on OAT1 was “negligible” throughout. The “apical-to-basal transport rate, % of the control in Na+ buffer” value with LLC-PK1 monolayer model (Na+-free buffer, 10 µM, 120 min) is on record as 58.8%. The “contribution of Na+-dependent transport to the total penetration amount” value with LLC-PK1 monolayer model (control in Na+-free buffer subtracted from control in Na+ buffer) is 41.2%.

For `N[C@]1(C(=O)O)C[C@@H](F)C1` [fluciclovine], on OAT3 [2] (OAT3, tracer [3H]ES 1 µM, 100 µM–10 mM fluciclovine), the “inhibition by fluciclovine at millimolar concentrations observed” value is given as “not”. Also, the “OAT3-mediated ES uptake” value on OAT3 [2] (in the presence of 10 mM fluciclovine) is on record as “increased”.
